Laboratory results published in ChEMBL document CHEMBL1143311, “Structure-activity relationship and studies on the molecular mechanism of leishmanicidal N,C-coupled arylisoquinolinium salts” (J Med Chem, 2009).
Activity calls are given as the source filed them. The calls are words filed in the database; no cut-off is given here.

Legend:
[1] = test system: Leishmania major; assay: Antileishmanial activity against Leishmania major MHOM/IL/81/FE/BNI promastigotes by alamar blue assay; assay type: functional, organism-based
[2] = Selectivity index, ratio of IC50 for mouse J774.1 cells to IC50 for Leishmania major MHOM/IL/81/FE/BNI promastigotes; assay type: toxicity; conditions: for selectivity ratio: J774.1 cells, read-out: Ratio IC50
[3] = Antiproliferative activity against mouse J774.1 cells after 48 hrs by alamar blue assay; assay type: cell-based
[4] = target: Albumin (Bos taurus, UniProt P02769); assay: Binding affinity to bovine serum albumin by ultrafiltration method; assay type: ADME; conditions: cattle; for fraction unbound: bovine serum albumin, read-out: PPB (converted)
[5] = target: T1, Cytochrome P450 2D6 (Homo sapiens, UniProt P10635); assay: Inhibition of human CYP2D6 by Lineweaver-Burke plot; assay type: ADME
[6] = target: Cytochrome P450 2C9 (Homo sapiens, UniProt P11712); assay: Inhibition of human CYP2C9 at 100 uM by LC/ESI-MS analysis; assay type: ADME
[7] = target: Cytochrome P450 3A4 (Homo sapiens, UniProt P08684); assay: Inhibition of human CYP3A4 at 100 uM by LC/ESI-MS analysis; assay type: ADME
[8] = target: T1, Cytochrome P450 2D6; assay: Inhibition of human CYP2D6 at 1 to 100 uM by LC/ESI-MS analysis; assay type: ADME
[9] = target: Cytochrome P450 2C19 (Homo sapiens, UniProt P33261); assay: Inhibition of human CYP2C19 at 100 uM by LC/ESI-MS analysis; assay type: ADME
[10] = target: T1, Cytochrome P450 2D6; assay: Inhibition of human CYP2D6 expressed in baculovirus-infected insect cell system; assay type: ADME
[11] = test system: Leishmania major; assay: Antileishmanial activity against Leishmania major MHOM/IL/81/FE/BNI promastigotes infected in BALB/c mouse peritoneal macrophages assessed as decrease in infection rate after 48 hrs by fluorescence microscopy; assay type: functional, organism-based
[12] = test system: Macrophage; assay: Increase in nitric oxide production in IFN-gamma-stimulated BALB/c mouse peritoneal macrophages infected with Leishmania major MHOM/IL/81/FE/BNI promastigotes at 3 uM after 48 hrs by […] relative to noninfected cells; assay type: functional
[13] = test system: Macrophage; assay: Reduction of IL6 production in IFN-gamma-stimulated BALB/c mouse peritoneal macrophages infected with Leishmania major MHOM/IL/81/FE/BNI promastigotes at 3 uM after 24 hrs by sandwich ELISA; assay type: functional, cell-based
[14] = Cytotoxicity against BALB/c mouse peritoneal macrophages after 48 hrs by alamar blue assay; assay type: cell-based; conditions: Macrophage
[15] = test system: Macrophage; assay: Increase in nitric oxide production in BALB/c mouse peritoneal macrophages infected with Leishmania major MHOM/IL/81/FE/BNI promastigotes at 3 uM after 48 hrs by […] relative to noninfected cells; assay type: functional
[16] = test system: Macrophage; assay: Decrease in IL10 secretion in LPS-stimulated BALB/c mouse peritoneal macrophages infected with Leishmania major MHOM/IL/81/FE/BNI promastigotes at 3 uM after 24 hrs by sandwich ELISA; assay type: functional, cell-based
[17] = Cytotoxicity against mouse NIH/3T3 after 48 hrs by alamar blue assay; assay type: cell-based; conditions: NIH3T3, 48 h
[18] = test system: Macrophage; assay: Increase in TGFbeta secretion in BALB/c mouse peritoneal macrophages infected with Leishmania major MHOM/IL/81/FE/BNI promastigotes at 3 uM after 24 hrs by sandwich ELISA; assay type: functional, cell-based
[19] = test system: Macrophage; assay: Reduction of IL6 production in LPS-stimulated BALB/c mouse peritoneal macrophages infected with Leishmania major MHOM/IL/81/FE/BNI promastigotes at 3 uM after 24 hrs by sandwich ELISA; assay type: functional, cell-based
[20] = test system: Macrophage; assay: Reduction of TNFalpha production in IFN-gamma-stimulated BALB/c mouse peritoneal macrophages infected with Leishmania major MHOM/IL/81/FE/BNI promastigotes at 3 uM after 24 hrs by sandwich ELISA; assay type: functional, cell-based
[21] = test system: Leishmania major; assay: Antileishmanial activity against Leishmania major MHOM/IL/81/FE/BNI promastigotes infected in BALB/c mouse peritoneal macrophages assessed as decrease in infection rate after 48 hrs by fluorescence microscopy in presence of interferon-gamma; assay type: functional, organism-based
[22] = Cytotoxicity against BALB/c mouse DC after 48 hrs by alamar blue assay
[23] = test system: Macrophage; assay: Increase in nitric oxide production in LPS-stimulated BALB/c mouse peritoneal macrophages infected with Leishmania major MHOM/IL/81/FE/BNI promastigotes at 3 uM after 48 hrs by […]; assay type: functional, cell-based
[24] = test system: Macrophage; assay: Decrease in IL10 secretion in IFN-gamma-stimulated BALB/c mouse peritoneal macrophages infected with Leishmania major MHOM/IL/81/FE/BNI promastigotes at 3 uM after 24 hrs by sandwich ELISA; assay type: functional, cell-based
[25] = Ratio of IC50 for BALB/c mouse peritoneal macrophages to EC50 for Leishmania major MHOM/IL/81/FE/BNI promastigotes
[26] = test system: Macrophage; assay: Increase in TGFbeta secretion in IFN-gamma-stimulated BALB/c mouse peritoneal macrophages infected with Leishmania major MHOM/IL/81/FE/BNI promastigotes at 3 uM after 24 hrs by sandwich ELISA; assay type: functional, cell-based

T1 sequence (P10635 whole entry): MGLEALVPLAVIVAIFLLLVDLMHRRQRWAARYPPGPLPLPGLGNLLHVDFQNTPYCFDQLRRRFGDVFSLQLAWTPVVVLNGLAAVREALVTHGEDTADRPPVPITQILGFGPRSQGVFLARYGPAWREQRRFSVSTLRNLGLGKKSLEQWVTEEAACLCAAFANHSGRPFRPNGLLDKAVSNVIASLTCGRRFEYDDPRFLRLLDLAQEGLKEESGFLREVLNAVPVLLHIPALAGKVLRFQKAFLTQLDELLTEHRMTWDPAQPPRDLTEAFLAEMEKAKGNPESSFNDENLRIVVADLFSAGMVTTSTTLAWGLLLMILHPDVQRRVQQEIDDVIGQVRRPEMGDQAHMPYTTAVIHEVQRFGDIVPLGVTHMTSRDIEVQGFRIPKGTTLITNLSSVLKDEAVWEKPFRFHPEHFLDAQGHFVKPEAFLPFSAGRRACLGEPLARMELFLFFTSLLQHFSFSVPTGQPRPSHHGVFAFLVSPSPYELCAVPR
Sequence of Cytochrome P450 2C19 (P33261 whole entry): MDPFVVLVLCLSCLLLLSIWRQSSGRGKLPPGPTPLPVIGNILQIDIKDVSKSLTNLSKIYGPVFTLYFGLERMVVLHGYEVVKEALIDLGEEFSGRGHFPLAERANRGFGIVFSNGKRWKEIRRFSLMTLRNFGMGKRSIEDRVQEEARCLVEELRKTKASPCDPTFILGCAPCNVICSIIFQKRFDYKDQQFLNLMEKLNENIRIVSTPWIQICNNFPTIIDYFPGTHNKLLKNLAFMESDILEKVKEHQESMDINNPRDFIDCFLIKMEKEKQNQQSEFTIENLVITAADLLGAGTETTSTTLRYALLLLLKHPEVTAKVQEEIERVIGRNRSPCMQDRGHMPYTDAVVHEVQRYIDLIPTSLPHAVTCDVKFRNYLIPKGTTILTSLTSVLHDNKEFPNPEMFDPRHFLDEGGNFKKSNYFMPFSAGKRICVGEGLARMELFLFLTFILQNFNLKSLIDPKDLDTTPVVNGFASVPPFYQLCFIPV
Sequence of Cytochrome P450 2C9 (P11712 whole entry): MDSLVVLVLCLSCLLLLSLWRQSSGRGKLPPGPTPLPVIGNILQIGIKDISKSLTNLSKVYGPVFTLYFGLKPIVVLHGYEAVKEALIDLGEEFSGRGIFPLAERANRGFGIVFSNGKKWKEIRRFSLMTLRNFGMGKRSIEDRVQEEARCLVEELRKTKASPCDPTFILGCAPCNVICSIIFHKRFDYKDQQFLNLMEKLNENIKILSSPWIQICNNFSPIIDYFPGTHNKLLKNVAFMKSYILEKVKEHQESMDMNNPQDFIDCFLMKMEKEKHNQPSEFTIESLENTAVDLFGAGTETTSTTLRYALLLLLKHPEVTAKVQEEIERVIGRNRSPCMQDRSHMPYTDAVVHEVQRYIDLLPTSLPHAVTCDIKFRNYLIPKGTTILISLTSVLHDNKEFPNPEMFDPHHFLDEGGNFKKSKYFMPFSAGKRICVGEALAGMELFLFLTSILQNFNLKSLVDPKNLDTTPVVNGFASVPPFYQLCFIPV
Sequence of Albumin (P02769 whole entry): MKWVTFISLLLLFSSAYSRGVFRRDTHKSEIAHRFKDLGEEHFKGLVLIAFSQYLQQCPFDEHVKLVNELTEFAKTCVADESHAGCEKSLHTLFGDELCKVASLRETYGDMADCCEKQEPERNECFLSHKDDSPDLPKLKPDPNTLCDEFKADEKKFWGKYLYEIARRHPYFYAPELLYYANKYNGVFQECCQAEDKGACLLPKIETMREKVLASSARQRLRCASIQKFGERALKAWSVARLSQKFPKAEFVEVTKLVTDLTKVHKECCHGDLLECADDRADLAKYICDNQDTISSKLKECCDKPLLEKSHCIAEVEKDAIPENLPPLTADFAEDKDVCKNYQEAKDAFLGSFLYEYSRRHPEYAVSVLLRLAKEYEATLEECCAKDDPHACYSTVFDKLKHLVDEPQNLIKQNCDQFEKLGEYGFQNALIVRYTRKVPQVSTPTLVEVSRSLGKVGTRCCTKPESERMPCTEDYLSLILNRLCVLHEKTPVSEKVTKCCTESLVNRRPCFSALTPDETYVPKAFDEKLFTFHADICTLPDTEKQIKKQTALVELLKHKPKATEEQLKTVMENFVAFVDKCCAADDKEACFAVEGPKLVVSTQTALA
Sequence of Cytochrome P450 3A4 (P08684 whole entry): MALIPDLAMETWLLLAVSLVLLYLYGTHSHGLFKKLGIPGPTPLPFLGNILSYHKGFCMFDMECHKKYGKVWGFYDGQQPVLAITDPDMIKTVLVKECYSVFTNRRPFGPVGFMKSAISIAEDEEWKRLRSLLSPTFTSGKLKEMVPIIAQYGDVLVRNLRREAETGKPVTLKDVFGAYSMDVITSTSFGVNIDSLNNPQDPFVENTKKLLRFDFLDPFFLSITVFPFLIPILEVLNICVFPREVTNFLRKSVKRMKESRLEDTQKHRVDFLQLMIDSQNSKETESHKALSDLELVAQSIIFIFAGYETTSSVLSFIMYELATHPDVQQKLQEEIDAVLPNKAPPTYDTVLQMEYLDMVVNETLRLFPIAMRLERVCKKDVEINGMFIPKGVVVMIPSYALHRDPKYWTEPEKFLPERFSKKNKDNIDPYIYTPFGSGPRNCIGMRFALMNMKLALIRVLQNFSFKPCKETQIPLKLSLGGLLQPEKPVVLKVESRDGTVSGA

In the case of `COc1cc(OC)c2c(C)[n+](-c3ccc(Br)cc3)c(C)cc2c1`, the IC50 ([1]; Leishmania major) is reported as 19.7 µM, the selectivity ratio [2] is reported as < 1 and the IC50 ([3]; Mus musculus, J774.1, 48 h) is reported as 2.97 µM.
With `COc1cc(OC)c2c(C)[n+](-c3ccc(O)cc3)c(C)cc2c1` the IC50 ([1]; Leishmania major) was 15.9 µM and the IC50 ([3]; Mus musculus, J774.1, 48 h) was > 100 µM.
Work on `COc1cc(OC)c2c(C)[n+](-c3cccc4ccccc34)c(C)cc2c1` yielded an IC50 ([1]; Leishmania major) of 1.63 µM, a selectivity ratio [2] of 2.63 and an IC50 ([3]; Mus musculus, J774.1, 48 h) of 4.29 µM.
With `COc1ccc(-[n+]2c(C)cc3cc(OC)cc(OC)c3c2C)cc1` the IC50 ([1]; Leishmania major) was > 100 µM and the IC50 ([3]; Mus musculus, J774.1, 48 h) was > 100 µM.
For `COc1cc2c(c(OC)c1)C(C)N(c1cccc3ccccc13)C(C)C2` (stereo unspecified), the IC50 ([1]; Leishmania major) was 65.6 µM and the IC50 ([3]; Mus musculus, J774.1, 48 h) was > 100 µM.
For `COc1cc(OC)c2c(C)[n+](-c3ccc(C)cc3C)c(C)cc2c1`, the IC50 ([1]; Leishmania major) was 3.28 µM, the selectivity ratio [2] was 1.24 and the IC50 ([3]; Mus musculus, J774.1, 48 h) was 4.07 µM.
In the case of `COc1cc(OC)c2c(C)[n+](-c3cccc4ccccc34)c(C)cc2c1.[O-][Cl+3]([O-])([O-])[O-]`, the Activity ([4]; isolated protein) is reported as “Active”, the Ki [5] is reported as 0.45 µM and the Activity [6] is reported as “Active”. The Activity [7] was “Active”, the Activity [8] was “Active” and the Activity [9] was “Active”. It also gave an IC50 [10] of 0.9 µM.
In the case of `COc1cc(OC)c2c(C)[n+](-c3ccc(Cl)cc3)c(C)cc2c1`, the IC50 ([1]; Leishmania major) is reported as 18.9 µM, the selectivity ratio [2] is reported as < 1 and the IC50 ([3]; Mus musculus, J774.1, 48 h) is reported as 3.05 µM.
With `CCCc1ccc(-[n+]2c(C)cc3cc(OC)cc(OC)c3c2C)cc1` the IC50 ([1]; Leishmania major) was 1.63 µM, the selectivity ratio [2] was 1.14 and the IC50 ([3]; Mus musculus, J774.1, 48 h) was 5.36 µM.
Work on `COc1cc2c(c(OC)c1)C(C)N(c1ccc(C(C)C)cc1)C(C)C2` (stereo unspecified) yielded an IC50 ([1]; Leishmania major) of 49.9 µM and an IC50 ([3]; Mus musculus, J774.1, 48 h) of 74.7 µM.
For `COc1cc2c(c(OC)c1)C(C)N(c1ccc(OC)c3c(OC)cc(C)cc13)[C@H](C)C2` (mixture of isomers), the IC50 ([1]; Leishmania major) was 66.7 µM and the IC50 ([3]; Mus musculus, J774.1, 48 h) was > 100 µM.
In the case of `COc1cc(OC)c2c(C)[n+](-c3cccc4cc5ccccc5cc34)c(C)cc2c1`, the IC50 [1] is reported as 1.85 µM, the selectivity ratio [2] is reported as < 1 and the IC50 ([3]; Mus musculus, J774.1, 48 h) is reported as 1.69 µM.
For `COc1cc(OC)c2c(C)[n+](-c3cccc4cc5ccccc5cc34)c(C)cc2c1.F[B-](F)(F)F`, the IC50 [1] was 0.72 µM, the “Ratio IC50” value [2] was < 1 and the IC50 ([3]; j774.1) was 2.95 µM.
For `C=C[C@H]1C[N@@]2CC[C@H]1C[C@@H]2[C@@H](O)c1ccnc2ccc(OC)cc12` [QUINIDINE], the Activity [6] was “Active” and the Activity [9] was “Active”.
For `COc1cc(OC)c2c(C)[n+](-c3ccc(C(C)C)cc3)c(C)cc2c1.O=C([O-])C(F)(F)F`, the EC50 [11] was 0.158 µM, the “fold change (FC)” value [12] was 3 and the Activity [13] was “Active”. The IC50 [14] was 8.81 µM, the fraction unbound [4] was 0.297 and the “fold change (FC)” value [15] was 2.7. The Ki [5] was 0.0547 µM, the IC50 ([1]; Leishmania major) was 2 µM and the Activity [6] was “Not Active”. The Activity [16] was “Active”, the IC50 [17] was 11.1 µM and the Activity [18] was “Active”. The Activity [7] was “Not Active”, the Activity [19] was “Active” and the Activity [8] was “Active”. For the same molecule, the Activity [20] was “Active”, the Activity [9] was “Not Active” and the Activity [21] was “Active”. For the same molecule, the IC50 [22] was 7.6 µM, the IC50 [10] was 0.109 µM and the Activity [23] was “inactive”. For the same molecule, the Activity [24] was “Active”, the selectivity ratio [2] was 6.55 and the “Ratio IC50/EC50” value [25] was 56. The Activity [26] was “Active” and the IC50 ([3]; Mus musculus, J774.1, 48 h) was 13.1 µM.
In the case of `COc1cc(OC)c2c(C)[n+](-c3c(C)cccc3C)c(C)cc2c1.F[B-](F)(F)F`, the EC50 [11] is reported as 0.241 µM, the Activity [13] is reported as “Active” and the IC50 [14] is reported as 9.67 µM. For the same molecule, the fraction unbound [4] was 0.538, the IC50 ([1]; Leishmania major) was 3.49 µM and the Activity [6] was “Active”. For the same molecule, the Activity [16] was “Active”, the IC50 [17] was 37.6 µM and the Activity [7] was “Active”. For the same molecule, the Activity [19] was “Active”, the Activity [8] was “Not Active” and the Activity [20] was “Active”. The Activity [9] was “Active”, the Activity [21] was “Active” and the IC50 [22] was 8.76 µM. The Activity [23] was “inactive”, the Activity [24] was “Active” and the selectivity ratio [2] was 7.82. For the same molecule, the “Ratio IC50/EC50” value [25] was 40 and the IC50 ([3]; Mus musculus, J774.1, 48 h) was 27.3 µM.
